pIC50, pKi: −log10 of the molar value.

The target of test [1] is T1, Arginase-2, mitochondrial (Homo sapiens, UniProt P78540).
T1 sequence (P78540 whole entry): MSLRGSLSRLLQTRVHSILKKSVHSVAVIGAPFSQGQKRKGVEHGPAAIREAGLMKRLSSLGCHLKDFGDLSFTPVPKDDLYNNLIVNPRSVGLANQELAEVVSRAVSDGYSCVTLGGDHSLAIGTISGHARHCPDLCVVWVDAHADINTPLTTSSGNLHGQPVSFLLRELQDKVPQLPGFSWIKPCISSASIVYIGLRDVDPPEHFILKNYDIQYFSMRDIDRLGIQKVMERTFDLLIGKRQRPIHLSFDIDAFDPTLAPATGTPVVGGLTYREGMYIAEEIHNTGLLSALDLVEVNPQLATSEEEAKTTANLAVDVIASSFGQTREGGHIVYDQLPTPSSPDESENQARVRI
The test is described as follows: Inhibition of arginase 2 in human LNCaP cells. The format is cell-based.

The nature of test [2]: Inhibition of recombinant rat liver arginase expressed in Escherichia coli assessed as inhibition constant.
Test [3] has as its target N(G),N(G)-dimethylarginine dimethylaminohydrolase 1 (Homo sapiens, UniProt O94760). The test is described as follows: Inhibition of human DDAH1 assessed as inhibition constant by microplate reader assay.
A further test concerns the target T2, Nitric oxide synthase 3 (Homo sapiens, UniProt P29474).
T2 sequence (P29474 whole entry): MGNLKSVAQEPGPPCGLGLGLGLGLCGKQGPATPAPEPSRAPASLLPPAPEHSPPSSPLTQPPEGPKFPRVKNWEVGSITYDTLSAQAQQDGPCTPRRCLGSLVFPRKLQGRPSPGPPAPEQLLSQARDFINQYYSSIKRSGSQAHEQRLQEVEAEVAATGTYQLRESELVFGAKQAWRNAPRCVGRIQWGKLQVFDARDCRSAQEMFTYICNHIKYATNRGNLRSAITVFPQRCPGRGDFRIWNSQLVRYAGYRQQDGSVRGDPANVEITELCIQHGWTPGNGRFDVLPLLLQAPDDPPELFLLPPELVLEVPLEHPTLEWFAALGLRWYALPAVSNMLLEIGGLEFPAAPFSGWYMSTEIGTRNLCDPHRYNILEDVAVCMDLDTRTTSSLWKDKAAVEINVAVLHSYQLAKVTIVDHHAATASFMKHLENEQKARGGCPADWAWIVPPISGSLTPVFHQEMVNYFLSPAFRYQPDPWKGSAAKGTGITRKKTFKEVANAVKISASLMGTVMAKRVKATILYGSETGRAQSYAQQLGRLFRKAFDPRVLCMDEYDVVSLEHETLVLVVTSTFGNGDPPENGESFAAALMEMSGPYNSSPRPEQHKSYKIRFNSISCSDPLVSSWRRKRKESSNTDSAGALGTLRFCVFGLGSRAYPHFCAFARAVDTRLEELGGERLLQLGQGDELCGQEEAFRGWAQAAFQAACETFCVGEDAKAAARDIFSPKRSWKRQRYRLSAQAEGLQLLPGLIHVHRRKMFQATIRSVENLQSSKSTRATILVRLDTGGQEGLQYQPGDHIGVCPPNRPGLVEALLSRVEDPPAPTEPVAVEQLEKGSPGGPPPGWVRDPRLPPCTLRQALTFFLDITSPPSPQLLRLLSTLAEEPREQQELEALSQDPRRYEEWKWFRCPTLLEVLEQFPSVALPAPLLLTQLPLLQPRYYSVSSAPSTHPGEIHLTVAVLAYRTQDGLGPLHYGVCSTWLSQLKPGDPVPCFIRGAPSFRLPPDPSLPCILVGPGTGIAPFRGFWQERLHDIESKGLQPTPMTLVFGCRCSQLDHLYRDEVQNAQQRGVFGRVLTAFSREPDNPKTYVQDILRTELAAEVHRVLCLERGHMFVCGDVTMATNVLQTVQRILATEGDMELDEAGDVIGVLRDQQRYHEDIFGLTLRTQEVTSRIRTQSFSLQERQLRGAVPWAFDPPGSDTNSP
The test is described as follows: Inhibition of human eNOS overexpressed in baculovirus infected Sf21 cells assessed as inhibition constant.

Test [4] concerns the target Nitric oxide synthase, inducible (Homo sapiens, UniProt P35228). The test is described as follows: Inhibition of human iNOS overexpressed in baculovirus infected Sf21 cells assessed as inhibition constant.
In test [5] the target is T3, Arginase-1 (Rattus norvegicus, UniProt P07824).
T3 sequence (P07824 whole entry): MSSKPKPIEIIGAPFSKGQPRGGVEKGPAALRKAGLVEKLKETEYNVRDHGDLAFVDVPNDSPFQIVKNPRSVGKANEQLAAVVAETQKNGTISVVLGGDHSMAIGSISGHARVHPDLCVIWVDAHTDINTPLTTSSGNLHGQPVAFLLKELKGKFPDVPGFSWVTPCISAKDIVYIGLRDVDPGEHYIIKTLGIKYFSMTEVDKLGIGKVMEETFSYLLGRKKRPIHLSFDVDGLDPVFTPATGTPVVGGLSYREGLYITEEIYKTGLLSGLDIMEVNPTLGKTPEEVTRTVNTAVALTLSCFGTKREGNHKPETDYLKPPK
The test is described as follows: Inhibition of N-terminal hexa-histidine tagged thrombin-cleavable rat arginase 1 expressed in Escherichia coli DE3 cells measured after 90 mins by colorimetric urea assay.

Test [6] has as its target T4, Arginase-1 (Mus musculus, UniProt Q61176).
T4 sequence (Q61176 whole entry): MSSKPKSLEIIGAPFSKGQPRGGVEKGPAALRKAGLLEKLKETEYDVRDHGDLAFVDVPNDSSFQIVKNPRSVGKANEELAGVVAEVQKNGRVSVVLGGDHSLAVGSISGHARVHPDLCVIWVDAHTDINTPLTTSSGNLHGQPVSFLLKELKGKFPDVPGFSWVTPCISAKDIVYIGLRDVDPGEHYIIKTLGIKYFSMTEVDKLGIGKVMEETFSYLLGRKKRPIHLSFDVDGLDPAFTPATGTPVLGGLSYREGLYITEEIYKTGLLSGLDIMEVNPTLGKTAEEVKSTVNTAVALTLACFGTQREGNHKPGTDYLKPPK
Briefly: Inhibition of mouse arginase 1.

The target of test [7] is T3, Arginase-1. The test is described as follows: Inhibition of Sprague-Dawley rat liver arginase 1. The format is tissue-based.
For test [8], the target named is T3, Arginase-1. The test is described as follows: Inhibition of Sprague-Dawley rat liver arginase 1 assessed as inhibition constant. The format is tissue-based.
The nature of test [9]: Inhibition of bovine arginase. The arrangement: species or system Bos taurus.

Nitric oxide synthase, inducible, sequence (P35228 whole entry): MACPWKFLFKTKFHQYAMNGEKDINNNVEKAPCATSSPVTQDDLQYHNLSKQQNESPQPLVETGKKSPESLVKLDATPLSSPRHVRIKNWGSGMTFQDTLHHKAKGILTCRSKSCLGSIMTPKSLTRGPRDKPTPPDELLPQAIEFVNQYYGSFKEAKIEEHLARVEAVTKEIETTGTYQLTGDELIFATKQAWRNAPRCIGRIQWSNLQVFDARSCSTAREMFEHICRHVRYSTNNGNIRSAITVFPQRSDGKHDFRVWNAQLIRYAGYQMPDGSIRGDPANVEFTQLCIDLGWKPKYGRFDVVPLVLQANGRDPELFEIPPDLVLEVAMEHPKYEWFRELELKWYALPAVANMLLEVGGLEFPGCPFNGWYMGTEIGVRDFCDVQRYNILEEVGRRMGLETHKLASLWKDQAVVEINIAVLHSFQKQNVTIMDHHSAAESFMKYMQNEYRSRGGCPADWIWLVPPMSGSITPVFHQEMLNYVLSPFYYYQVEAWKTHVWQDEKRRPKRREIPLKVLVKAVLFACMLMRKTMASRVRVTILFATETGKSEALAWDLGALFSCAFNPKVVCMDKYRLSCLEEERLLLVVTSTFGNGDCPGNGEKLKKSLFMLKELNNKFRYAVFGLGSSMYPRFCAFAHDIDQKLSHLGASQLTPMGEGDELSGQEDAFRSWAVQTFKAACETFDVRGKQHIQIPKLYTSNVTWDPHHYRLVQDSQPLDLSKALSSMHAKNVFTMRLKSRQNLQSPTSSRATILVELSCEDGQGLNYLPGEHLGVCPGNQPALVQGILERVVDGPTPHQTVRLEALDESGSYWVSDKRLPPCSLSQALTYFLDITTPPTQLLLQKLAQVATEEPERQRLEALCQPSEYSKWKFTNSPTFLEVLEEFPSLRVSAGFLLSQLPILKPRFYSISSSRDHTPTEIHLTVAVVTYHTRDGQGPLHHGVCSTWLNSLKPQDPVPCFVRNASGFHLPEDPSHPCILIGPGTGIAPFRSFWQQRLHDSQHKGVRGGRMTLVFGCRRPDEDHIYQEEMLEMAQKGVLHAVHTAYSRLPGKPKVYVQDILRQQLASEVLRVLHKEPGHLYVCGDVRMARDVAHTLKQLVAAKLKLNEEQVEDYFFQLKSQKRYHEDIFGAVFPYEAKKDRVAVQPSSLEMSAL
N(G),N(G)-dimethylarginine dimethylaminohydrolase 1, sequence (O94760 whole entry): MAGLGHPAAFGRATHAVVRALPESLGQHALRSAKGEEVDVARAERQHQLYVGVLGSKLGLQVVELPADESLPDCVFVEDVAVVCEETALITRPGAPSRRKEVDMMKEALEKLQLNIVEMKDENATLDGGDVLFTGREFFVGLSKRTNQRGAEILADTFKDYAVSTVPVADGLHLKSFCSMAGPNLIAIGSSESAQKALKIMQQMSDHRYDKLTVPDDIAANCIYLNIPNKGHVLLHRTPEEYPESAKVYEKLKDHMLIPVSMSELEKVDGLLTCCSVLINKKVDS

Regarding `O=C(O[C@@H]1O[C@@H]2COC(=O)c3cc(Oc4c(C(=O)O[C@@H]5[C@@H](OC(=O)c6cc(O)c(O)c(O)c6)[C@@H]6OC(=O)c7cc(O)c(O)c(O)c7-c7c(cc(O)c(O)c7O)C(=O)OC[C@H]6O[C@H]5O)cc(O)c(O)c4O)c(O)c(O)c3-c3c(cc(O)c(O)c3O)C(=O)O[C@@H]2[C@@H](OC(=O)c2cc(O)c(O)c(O)c2)[C@H]1O)c1cc(O)c(O)c(O)c1`, the pIC50 in test [1] is 4.72.
As for `N[C@@H](CSCCB(O)O)C(=O)O`, the pKi in [2] is 6.40.
Regarding `N[C@@H](CCSN=O)C(=O)O`, the pKi in test [3] was 3.16.
`C[C@H]1CC(=N)N[C@@H]2[C@H](Cl)[C@@H]21` (racemic): the pKi on Nitric oxide synthase 3 was 7.74; in [4], 8.70.
On to `N[C@@H](CCCCB(O)O)C(=O)O`, for which the pKi on Arginase-1 [5] is 6.96.
With `N=C(NO)NCCC[C@H](N)C(=O)O`, the values for the pIC50 against Arginase-1 [6] and against Arginase-1 [7] were 3.35 and 3.82, respectively. Also, the pKi is 5.00 at Arginase-1 [8] and 4.52 in test [9].

The record behind these values is ChEMBL document CHEMBL5360519, “Chemical similarities and differences among inhibitors of nitric oxide synthase, arginase and dimethylarginine dimethylaminohydrolase-1: Implications for the design of novel enzyme inhibitors modulating the nitric oxide pathway” (Bioorg Med Chem, 2022).
